Measurements from patent US10221177B2 (HYDRA BIOSCIENCES, INC., priority 2014, dated 2019).

biological target: human TRPA1 (Homo sapiens (Human), UniProt O75762); assay: In vitro inhibition of human TRPA1, whole cell patch configuration; assay type: cell-based; conditions: current activation 10 μM AITC, tested concentrations 320 pM to 3.2 μM, read-out: hTRPA1 IC50
Procedure, shortened: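 Compound antagonism measured from voltage ramps (±100 or ±80 mV, 400 ms, every 4 s from −40 mV), analysed at −80 and 80 mV, or at constant −60 mV. HEPES-buffered NaCl bath, pH 7.4, EGTA or 2 mM Ca2+; temperature set by perfusion, within ±2° C; no junction-potential correction.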

Chain of human TRPA1 (O75762 whole entry, the tested form may be a part): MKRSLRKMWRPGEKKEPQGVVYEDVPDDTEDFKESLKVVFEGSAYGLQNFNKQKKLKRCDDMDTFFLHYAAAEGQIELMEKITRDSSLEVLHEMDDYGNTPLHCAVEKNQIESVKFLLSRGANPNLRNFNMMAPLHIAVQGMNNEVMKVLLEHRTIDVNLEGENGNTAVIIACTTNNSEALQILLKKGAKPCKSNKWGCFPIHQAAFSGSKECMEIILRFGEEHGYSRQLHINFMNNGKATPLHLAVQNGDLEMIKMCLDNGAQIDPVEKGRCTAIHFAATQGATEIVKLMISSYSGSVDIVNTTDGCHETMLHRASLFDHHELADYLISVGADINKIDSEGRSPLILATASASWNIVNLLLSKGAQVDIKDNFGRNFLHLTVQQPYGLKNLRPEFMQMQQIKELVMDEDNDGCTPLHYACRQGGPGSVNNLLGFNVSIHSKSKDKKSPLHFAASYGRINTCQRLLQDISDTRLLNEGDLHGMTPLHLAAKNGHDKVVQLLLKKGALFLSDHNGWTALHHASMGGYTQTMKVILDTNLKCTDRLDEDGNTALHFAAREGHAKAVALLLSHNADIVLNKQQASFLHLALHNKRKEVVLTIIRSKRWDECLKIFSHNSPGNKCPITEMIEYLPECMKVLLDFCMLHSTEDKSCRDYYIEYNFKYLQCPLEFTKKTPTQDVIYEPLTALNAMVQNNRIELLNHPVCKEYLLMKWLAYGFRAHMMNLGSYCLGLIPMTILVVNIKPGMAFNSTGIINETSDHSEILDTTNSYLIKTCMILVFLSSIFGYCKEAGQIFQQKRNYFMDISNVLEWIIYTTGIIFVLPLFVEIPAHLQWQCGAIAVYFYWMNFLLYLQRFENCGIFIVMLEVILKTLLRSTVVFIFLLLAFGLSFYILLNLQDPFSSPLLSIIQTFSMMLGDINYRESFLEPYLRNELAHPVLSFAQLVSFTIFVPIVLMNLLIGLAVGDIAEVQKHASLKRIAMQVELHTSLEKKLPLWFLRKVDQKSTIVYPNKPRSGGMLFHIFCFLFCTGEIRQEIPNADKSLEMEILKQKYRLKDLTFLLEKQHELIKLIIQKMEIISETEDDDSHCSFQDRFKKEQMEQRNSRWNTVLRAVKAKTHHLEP

| IC50 | Compound |
| --- | --- |
| 14 nM | Cc1noc(Cn2c(=O)c3c(ncn3CC(=O)Nc3cncc(-c4cnc(C(F)(F)F)c(C)c4)n3)n(C)c2=O)n1 [Compound 230, 2-(3-methyl-1-((3-methyl-1,2,4-oxadiazol-5-yl)methyl)-2,6-dioxo-2,3-dihydro-1H-purin-7(6H)-yl)-N-(6-(5-methyl-6-(trifluoromethyl)pyridin-3-yl)pyrazin-2-yl)acetamide] |
| 6 nM | CCC(=O)Cn1c(=O)c2c(ncn2[C@@H](C)C(=O)Nc2cncc(-c3cnc(N4CC5C(C4)C5(F)F)cn3)n2)n(C)c1=O (stereo partly drawn) [Compound 159, (2S)—N-(5′-(6,6-difluoro-3-azabicyclo[3.1.0]hexan-3-yl)-[2,2′-bipyrazin]-6-yl)-2-(3-methyl-2,6-dioxo-1-(2-oxobutyl)-2,3-dihydro-1H-purin-7(6H)-yl)propanamide] |
| 9 nM | C[C@@H](C(=O)Nc1cccc(-c2ccc(C(F)(F)F)nc2)n1)n1cnc2c1c(=O)n(Cc1ccon1)c(=O)n2C [Compound 95, (S)-2-(1-(isoxazol-3-ylmethyl)-3-methyl-2,6-dioxo-2,3-dihydro-1H-purin-7(6H)-yl)-N-(6′-(trifluoromethyl)-[2,3′-bipyridin]-6-yl)propanamide] |
| 6 nM | Cc1noc(Cn2c(=O)c3c(ncn3[C@@H](C)C(=O)Nc3csc(-c4cnc(N5CC6CC6C5)nc4)n3)n(C)c2=O)n1 (stereo partly drawn) [Compound 166, (2S)—N-(2-(2-(3-azabicyclo[3.1.0]hexan-3-yl)pyrimidin-5-yl)thiazol-4-yl)-2-(3-methyl-1-((3-methyl-1,2,4-oxadiazol-5-yl)methyl)-2,6-dioxo-2,3-dihydro-1H-purin-7(6H)-yl)propanamide] |
| 122 nM | Cc1cc(Cn2c(=O)c3c(ncn3CC(=O)Nc3cccc(N4CCC(F)(F)CC4)n3)n(C)c2=O)no1 [Compound 196, N-(6-(4,4-difluoropiperidin-1-yl)pyridin-2-yl)-2-(3-methyl-1-((5-methylisoxazol-3-yl)methyl)-2,6-dioxo-2,3-dihydro-1H-purin-7(6H)-yl)acetamide] |
| 2 nM | Cc1cc(Cn2c(=O)c3c(ncn3[C@@H](C)C(=O)Nc3cccc(-c4cnc(Cl)c(C(F)(F)F)c4)n3)n(C)c2=O)no1 [Compound 123, (S)—N-(6′-chloro-5′-(trifluoromethyl)-[2,3′-bipyridin]-6-yl)-2-(3-methyl-1-((5-methylisoxazol-3-yl)methyl)-2,6-dioxo-2,3-dihydro-1H-purin-7(6H)-yl)propanamide] |
| 28 nM | C[C@@H](C(=O)Nc1cncc(-c2ccc(C(F)(F)F)nc2)n1)n1cnc2c1c(=O)n(Cc1ccon1)c(=O)n2C [Compound 119, (S)-2-(1-(isoxazol-3-ylmethyl)-3-methyl-2,6-dioxo-2,3-dihydro-1H-purin-7(6H)-yl)-N-(6-(6-(trifluoromethyl)pyridin-3-yl)pyrazin-2-yl)propanamide] |
| 8 nM | CC(=O)Cn1c(=O)c2c(ncn2[C@@H](C)C(=O)Nc2cccc(-c3ccc(N4CC5C(C4)C5(F)F)nc3)n2)n(C)c1=O (some centres unmarked) [Compound 65] |
| 2 nM | Cc1cc(Cn2c(=O)c3c(ncn3[C@@H](C)C(=O)Nc3cncc(-c4cnc(N5CCC[C@H]5C(F)(F)F)nc4)n3)n(C)c2=O)no1 [Compound 96, (S)-2-(3-methyl-1-((5-methylisoxazol-3-yl)methyl)-2,6-dioxo-2,3-dihydro-1H-purin-7(6H)-yl)-N-(6-(2-((S)-2-(trifluoromethyl)pyrrolidin-1-yl)pyrimidin-5-yl)pyrazin-2-yl)propanamide] |
| 294 nM | Cc1cc(Cn2c(=O)c3c(ncn3CC(=O)Nc3cccc(N4CC(F)(F)C4)n3)n(C)c2=O)no1 [Compound 197, N-(6-(3,3-difluoroazetidin-1-yl)pyridin-2-yl)-2-(3-methyl-1-((5-methylisoxazol-3-yl)methyl)-2,6-dioxo-2,3-dihydro-1H-purin-7(6H)-yl)acetamide] |
| 2 nM | CCC(=O)Cn1c(=O)c2c(ncn2[C@@H](C)C(=O)Nc2csc(-c3cnc(N4CC5C(C4)C5(F)F)nc3)n2)n(C)c1=O (stereo partly drawn) [Compound 57, (2S)—N-(2-(2-(6,6-difluoro-3-azabicyclo[3.1.0]hexan-3-yl)pyrimidin-5-yl)thiazol-4-yl)-2-(3-methyl-2,6-dioxo-1-(2-oxobutyl)-2,3-dihydro-1H-purin-7(6H)-yl)propanamide] |
| 18 nM | C[C@@H](C(=O)Nc1cccc(-c2cnc(C(F)(F)F)nc2)n1)n1cnc2c1c(=O)n(Cc1ccon1)c(=O)n2C [Compound 117, (S)-2-(1-(isoxazol-3-ylmethyl)-3-methyl-2,6-dioxo-2,3-dihydro-1H-purin-7(6H)-yl)-N-(6-(2-(trifluoromethyl)pyrimidin-5-yl)pyridin-2-yl)propanamide] |
| 3 nM | C[C@@H](C(=O)Nc1cccc(-c2cnc(N3CC4C(C3)C4(F)F)nc2)n1)n1cnc2c1c(=O)n(CC#N)c(=O)n2C (stereo partly drawn) [Compound 30, (2S)-2-(1-(cyanomethyl)-3-methyl-2,6-dioxo-2,3-dihydro-1H-purin-7(6H)-yl)-N-(6-(2-(6,6-difluoro-3-azabicyclo[3.1.0]hexan-3-yl)pyrimidin-5-yl)pyridin-2-yl)propanamide] |
| 5 nM | Cc1cc(Cn2c(=O)c3c(ncn3[C@@H](C)C(=O)Nc3cncc(-c4cncc(C(F)(F)F)c4)n3)n(C)c2=O)no1 [Compound 55, (S)-2-(3-methyl-1-((5-methylisoxazol-3-yl)methyl)-2,6-dioxo-2,3-dihydro-1H-purin-7(6H)-yl)-N-(6-(5-(trifluoromethyl)pyridin-3-yl)pyrazin-2-yl)propanamide] |
| 28 nM | C[C@@H](C(=O)Nc1cccc(-c2ccc(C(F)(F)F)nc2)n1)n1cnc2c1c(=O)n(Cc1ccccn1)c(=O)n2C [Compound 1, (2S)-2-(3-methyl-2,6-dioxo-1-(pyridin-2-ylmethyl)-1,2,3,6-tetrahydropurin-7-yl)-N-(6-(6-(trifluoromethyl)pyridin-3-yl)pyridin-2-yl)propanamide] |
| 1 nM | Cc1cc(Cn2c(=O)c3c(ncn3[C@@H](C)C(=O)Nc3csc(-c4cnc(C)c(C(F)(F)F)c4)n3)n(C)c2=O)no1 [Compound 112, (S)-2-(3-methyl-1-((5-methylisoxazol-3-yl)methyl)-2,6-dioxo-2,3-dihydro-1H-purin-7(6H)-yl)-N-(2-(6-methyl-5-(trifluoromethyl)pyridin-3-yl)thiazol-4-yl)propanamide] |
| 5 nM | CC#CCn1c(=O)c2c(ncn2[C@@H](C)C(=O)Nc2cncc(-c3cnc(N4CC5CC5C4)nc3)n2)n(C)c1=O (some centres unmarked) [Compound 261] |
| 2 nM | CCC(=O)Cn1c(=O)c2c(ncn2[C@@H](C)C(=O)Nc2cccc(-c3cnc(N4CC5CC5C4)cn3)n2)n(C)c1=O (stereo partly drawn) [Compound 113, (2S)—N-(6-(5-(3-azabicyclo[3.1.0]hexan-3-yl)pyrazin-2-yl)pyridin-2-yl)-2-(3-methyl-2,6-dioxo-1-(2-oxobutyl)-2,3-dihydro-1H-purin-7(6H)-yl)propanamide] |
| 3250 nM | COc1cc(NC(=O)Cn2cnc3c2c(=O)n(Cc2cc(C)on2)c(=O)n3C)nc(C(F)(F)F)c1 [Compound 204, N-(4-methoxy-6-(trifluoromethyl)pyridin-2-yl)-2-(3-methyl-1-((5-methylisoxazol-3-yl)methyl)-2,6-dioxo-2,3-dihydro-1H-purin-7(6H)-yl)acetamide] |

| Compound | IC50 |
| --- | --- |
| Cc1nc2c(c(=O)n(Cc3ccccn3)c(=O)n2C)n1CC(=O)Nc1cccc(-c2ccc(Cl)cc2)n1 [Compound 174, N-(6-(4-chlorophenyl)pyridin-2-yl)-2-(3,8-dimethyl-2,6-dioxo-1-(pyridin-2-ylmethyl)-2,3-dihydro-1H-purin-7(6H)-yl)acetamide] | 24 nM |
